Source: US20100075894A1, “REDUCING ER STRESS IN THE TREATMENT OF OBESITY AND DIABETES” (HARVARD UNIVERSITY, priority 2004, published 2010)

System: mouse embryonic fibroblasts (MEF)
Assay: tunicamycin ER stress response in MEFs (XBP-1 models)
Assay type: cell-based
Experimental: ER stress responses in XBP-1s overexpressing cells, XBP-1^−/− cells and their controls. (A) Induction of XBP-1s expression upon removal of doxycycline in mouse embryonic fibroblasts (MEF). (B) Southern blot analysis of XBP-1^−/− MEF cells and their WT controls for the wild type (9.4 kb) and targeted (6.5 kb) alleles. (C) PERK phosphorylation (p-PERK) and JNK activity in the XBP-1s overexpressing cells and their control cells (−Dox and +Dox, respectively) upon tunicamycin treatment (Tun, 2 μg/ml). (D) PERK phosphorylation and JNK activity upon low dose tunicamycin treatment (Tun, 0.5 μg/ml) in XBP-1^−/− MEF cells and their WT controls. (E) IRS-1 Ser307 phosphorylation upon tunicamycin treatment (Tun, 2 μg/ml) in the XBP-1s overexpressing and the control cells (−Dox and +Dox, respectively), detected using immunoprecipitation (IP) of IRS-1 followed by immunoblotting (IB) with an IRS-1 phosphoserine 307-specific antibody. […] The ratio of IRS-1 tyrosine phosphorylation to total IRS-1 level was summarized from independent experiments and was presented in the graph. (G) IRS-1 Ser307 phosphorylation upon tunicamycin treatment (Tun, 0.5 μg/ml) in XBP-1^−/− cells and WT controls was detected as described in […]. […] (H) Insulin-stimulated tyrosine phosphorylation of IRS-1 in XBP-1^−/− and WT control cells with or without tunicamycin treatment (Tun, 0.5 μg/ml). The ratio of IRS-1 tyrosine phosphorylation to total IRS-1 level was summarized from independent experiments and presented in the graph. All graphs show mean±SEM from at least 2 independent experiments and statistically significance from the controls is indicated by * with p<0.005.
The transcription factor XBP-1 is a bZIP protein. The spliced or processed form of XBP-1 (XBP-1s) is a key factor in the transcriptional regulation of molecular chaperones and enhances the compensatory UPR (Calfon et al., Nature 415, 92 (2002); Shen et al., Cell 107:893 (2001); Yoshida et al., Cell 107:881 (2001); Lee et al., Mol. Cell Biol. 23:7448 (2003); each of which is incorporated herein by reference). We therefore reasoned that modulation of XBP-1s levels in cells should alter insulin action via its potential impact on the magnitude of the ER stress responses. To test this possibility, we established XBP-1 gain- and loss-of-function cellular models. First, we established an inducible gene expression system where exogenous XBP-1s is expressed only in the absence of tetracycline/doxycycline (FIG. 13A). In parallel, we also studied MEFs derived from XBP-1^−/− mouse embryos (Lee et al., Mol. Cell Biol. 23, 7448 (2003); A. M. Reimold et al., Genes Dev. 14, 152 (2000); Reimold et al., Nature 412, 300 (2001); each of which is incorporated herein by reference) (FIG. 13B). […] Upon induction of XBP-1s expression, there was a dramatic reduction in both PERK phosphorylation and JNK activation following tunicamycin treatment (FIG. 13C). […] Thus alterations in the levels of cellular XBP-1s protein result in alterations in the ER stress response.
Cells: Rat Fao liver cells were cultured with RPMI 1640 (Gibco, Grand Island, N.Y.) containing 10% fetal bovine serum (FBS). At 70-80% confluency, cells were serum depleted for 12 hours before starting the experiments. Reagents including tunicamycin, thapsigargin, and JNK inhibitors were gently added to the culture dishes in the incubator to prevent any environmental stress. JNK inhibitors were added 1 hour before tunicamycin/thapsigargin treatment. The XBP-1^−/− mouse embryonic fibroblasts (MEF) (A. H. Lee, N. N. Iwakoshi, L. H. Glimcher, Mol. Cell. Biol. 23:7448 (2003); incorporated herein by reference), IRE-1α^−/− MEF cells (kindly provided by Dr. David Ron, New York University School of Medicine), and their wild type controls were cultured in Dulbecco's Modified Eagle Medium (DMEM) (Gibco, Grand Island, N.Y.) containing 10% FBS. A similar protocol was followed for experiments in MEF cells, except that the cells were serum depleted for only 6 hours. […]

[1] = fibroblasts without exogenous XBP-1s expression, 2 μg/ml

tunicamycin
ER stress (WT cells, low dose 0.5 μg/ml): failed to stimulate significant ER stress
ER stress response (XBP-1−/− MEFs, low dose 0.5 μg/ml): strong ER stress response
PERK phosphorylation [1]: strong PERK phosphorylation
PERK phosphorylation, peak [1]: 3 to 4 h
PERK phosphorylation, start [1]: 30 min
activation of JNK [1]: rapid and robust activation
